What all share (assay): NCI-60 cell line screen, 48 h
Assay [1] concerns A549 NSCLC.
The subject of assay [2] is CAKI-1 renal.
Assay [3] concerns HT29 colon.
Assay [4] has as its system LOX IMVI melanoma.
Assay [5] concerns MDA-MB-435.
Assay [6] concerns RXF 393 renal.
Assay [7] concerns SF-539 CNS.
Assay [8] relates to SNB-75 CNS.
For assay [9], the system named is UACC-257 melanoma.
Assay [10] has as its system UACC-62 melanoma.

“And” between values parts separate entries of the source, which are not always exact repeats. Equal values may be shown once.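 Where inhibition never reached the appropriate level, the endpoint shown equals the highest concentration tested. Otherwise, values were interpolated linearly from a five-concentration, 48-hour dose response in 96-well plates. GI50: concentration for 50% inhibition of growth. Definition used: TGI = concentration required for complete inhibition of growth.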

Consider `CC1SC(c2ccc(Cl)cc2Cl)N(NC(=O)C(O)c2ccccc2)C1=O` (stereo not drawn), for which the GI50 was 33.9 µM in assay [1]; 60.1 µM in [2]; 41.9 µM in assay [3]; above 100 µM in assay [4]; 74.7 µM in assay [5]; 42.9 µM in assay [6]. In addition, the GI50 is above 100 µM in [7], 32.1 µM in assay [8], 61.7 µM in assay [9] and 24.2 µM in [10]. The TGI in [1], in [2], in assay [3], in assay [4], in [5] and in [6] was above 100 µM in each case. Also, the TGI in assay [7], in [8], in assay [9] and in assay [10] was above 100 µM each time.

As for `COc1cc2c3c(n(CCCNCCCN)c(=O)c2cc1OC)-c1cc2c(cc1C3=O)OCO2`, the GI50 was 6.11 µM in assay [1]; 8.22 µM in assay [2]; 1.7 µM in assay [3]; 0.659 µM in assay [4]; 2.53 µM in assay [5]; 3.91 µM in [6]. Besides, the GI50 in assay [7] was 1.17 µM; in [8] it was 4.48 µM; in assay [9] it was 7.31 µM; in assay [10], 3.41 µM. The TGI in [1] worked out at 29.6 µM; in assay [2], 37.3 µM; in assay [3], 13.6 µM; in [4] it was 3.42 µM; in assay [5], 13.5 µM; in [6], 16.8 µM. Further, the TGI is 10.6 µM in [7], 36.7 µM in [8], 23 µM in [9] and 15.5 µM in [10].

On to `O=P(O)(O)OCC1OC(n2cnc3c(NCc4ccccc4)ncnc32)C(O)C1O` (stereo not drawn), for which the GI50 was 7.21 µM in [1]; 1.4 µM in assay [2]; 2.27 µM in [3]; 0.334 µM in [4]; 3.23 µM in [5]; 1.46 µM in assay [6]. Further, the GI50 is 1.55 µM in assay [7], 0.987 µM in [8], above 75.2 µM in [9] and 5.02 µM in assay [10]. Moreover, the TGI in assay [1] was above 88.4 µM; in [2] it was 14.3 µM; in [3], above 36 µM; in assay [4], 1.47 µM; in [5], above 100 µM; in assay [6], 13.8 µM. For the same compound, the TGI in assay [7] is 4.73 µM; in assay [8] it was above 44.1 µM; in assay [9], above 100 µM; in assay [10], above 100 µM.

Consider `O=C1NC(c2ccccc2)C2(C(=O)O)CN(C3CC3)c3cc(N4CCNCC4)c(F)cc3C2N1` (stereo not drawn), for which the GI50 in assay [1], in assay [2], in assay [3], in assay [4], in assay [5] and in assay [6] was above 100 µM throughout. Also, the GI50 in assay [7], in [8], in assay [9] and in assay [10] was above 100 µM throughout. Also, the TGI in assay [1], in [2], in assay [3], in assay [4], in assay [5] and in [6] was above 100 µM throughout. The TGI in assay [7], in [8], in [9] and in assay [10] was above 100 µM throughout.

`O=c1/c(=N\Nc2ccccc2)c2cccc3ccc4cccc1c4c32`: the TGI in assay [1], in assay [2], in [3], in [4], in assay [5] and in assay [6] was above 100 µM each time. Further, the TGI in [8], in assay [9] and in assay [10] was above 100 µM throughout.

For `CN(N)c1nc(N)c(C#N)c(C#N)c1C#N`, the TGI in assay [1], in [2], in assay [3], in [4], in [5] and in assay [7] was above 10 µM each time. For the same compound, the TGI in assay [8], in [9] and in assay [10] was above 10 µM throughout.

Regarding `CC(C)(C)OC(=O)N[C@@H](Cc1ccccc1)C(=O)N(Cc1ccccc1)C1(C(=O)NCc2ccccc2)CCN(Cc2ccccc2)CC1`, the GI50 in assay [1] was 3.85 µM; in assay [2], 2.32 µM; in assay [3] it was 2.16 µM; in [4], 3.65 µM; in assay [5], 3.04 µM; in assay [6], 3.12 µM. Also, the GI50 in [8] was 2.97 µM; in [9] it was 2.54 µM; in assay [10], 2.54 µM. Moreover, the TGI in [1] is above 100 µM; in assay [2], above 100 µM; in [3], 6.82 µM; in assay [4], 21.2 µM; in [5] it was above 100 µM; in assay [6] it was above 100 µM. Moreover, the TGI in assay [8] is above 100 µM; in [9], above 100 µM; in [10], 7.88 µM.

Regarding `O=C1N=C(Nc2nc(-c3csc(NC4=NC(=O)/C(=C\c5ccccc5)S4)n3)cs2)S/C1=C/c1ccccc1`, the GI50 is 16.3 µM in assay [1]; 29.2 µM in assay [2]; 25.7 µM in [3]; above 50 µM in assay [4]; 14.7 µM in assay [5]; 18.5 µM in assay [6]. The GI50 in assay [7] was 13.6 µM; in assay [9] it was 12.2 µM; in assay [10], 6.4 µM. Besides, the TGI in assay [1], in [2], in assay [3], in assay [4], in assay [5] and in [6] was above 50 µM throughout. In addition, the results for the TGI in assay [7], in assay [9] and in assay [10] were 39.7 µM, 28.1 µM and 18.5 µM, respectively.

With `COC(=O)N[C@H]1CCc2c(Cl)c(OC)c(OC)c(OC)c2-c2ccc(SC)c(=O)cc21`, the GI50 in assay [1] is below 0.01 µM; in [2], below 0.0208 µM; in assay [3], below 0.01 µM; in assay [4], below 0.01 µM; in assay [5], below 0.01 µM; in assay [7], below 0.01 µM. Besides, the GI50 in assay [8] was below 0.01 µM; in assay [9] it was 24.9 µM; in assay [10] it was below 0.01 µM. For the same compound, the TGI is above 100 µM in assay [1]; 48.3 µM in [2]; above 94.8 µM in assay [3]; 18.6 µM in [4]; below 0.01 µM in [5]; below 0.01 µM in assay [7]. Further, the values for the TGI in [8], in assay [9] and in [10] were above 81.2 µM, above 100 µM and 20.1 µM, respectively.

On to `C[N+](C)=c1ccc2nc3c(cc(NCCCNc4cc5oc6cc(=[N+](C)C)ccc-6nc5c5ccccc45)c4ccccc43)oc-2c1`, for which the GI50 was 12.7 µM in assay [2]; 1.81 µM in [3]; 1.76 µM in [5]; 6.04 µM in [6]; 1.73 µM in [7]; 1.56 µM in [8]. In addition, the values for the GI50 in [9] and in assay [10] were 4.34 µM and 2.3 µM, respectively. In addition, the TGI in assay [2] came to 35.4 µM; in assay [3], 6.29 µM; in [5], 3.29 µM; in [6], 37.5 µM; in [7] it was 3.76 µM; in [8], 3.64 µM. Moreover, the TGI in [9] was 16.3 µM; in assay [10], 6.88 µM.

As to `COC(C)C(O)(C(=O)OCC1=CCN2CCC(O)C12)C(C)(C)O` (stereo not drawn), the TGI in [1], in [2], in [3], in [4], in assay [5] and in assay [7] was above 100 µM in each case. In addition, the TGI in [8], in assay [9] and in assay [10] was above 100 µM throughout.

Consider `CC[C@H](C)[C@H](NC(=O)c1cccn1C)C(=O)N(C)[C@H](C[C@@H](OC(C)=O)c1nc(C(=O)N[C@@H](Cc2ccccc2)C[C@H](C)C(=O)OC)cs1)C(C)C`, for which the GI50 is 0.661 µM in assay [1]; 0.205 µM in assay [3]; 0.382 µM in assay [4]; 0.0348 µM in assay [5]; 0.203 µM in assay [7]; 0.0929 µM in assay [8]. The GI50 in assay [9] was 18.2 µM; in [10] it was 0.0569 µM. Moreover, the TGI is above 33.3 µM in assay [1]; above 29.5 µM in assay [3]; above 33.3 µM in assay [4]; 0.168 µM in assay [5]; 1.22 µM in assay [7]; above 33.3 µM in [8]. Also, the TGI in assay [9] was above 33.3 µM; in [10], above 26 µM.

In the case of `COc1cc(/C=C2\CCCC3=C2N=C2SC(C)=NN2C3c2cc(OC)c(OC)c(OC)c2)cc(OC)c1OC` (stereo not drawn), the GI50 in [1] was above 100 µM; in [5] it was 0.341 µM; in assay [9] it was above 100 µM. Further, the TGI in [1], in assay [5] and in [9] was above 100 µM in each case.

As to `CN1CCN(CCCOc2cc(O)c3c(=O)cc(-c4ccccc4)oc3c2)CC1`, the GI50 in assay [1] was 28.8 µM; in [2], 15.1 µM; in [3] it was 14.5 µM; in assay [4], 14.1 µM; in assay [5], 13.7 µM; in assay [6] it was 30.2 µM. Moreover, the GI50 in [7] is 17.2 µM; in assay [9] it was 19.4 µM; in [10], 16.3 µM. The TGI in assay [1] was determined as 91.1 µM; in [2], 33.4 µM; in assay [3] it was 30.4 µM; in [4], 28.4 µM; in assay [5], 32.9 µM; in assay [6], 84 µM. Also, the TGI was determined as 33.1 µM in [7], 41.1 µM in assay [9] and 29.9 µM in assay [10].

In the case of `COC(=O)[C@H](Cc1cn(C)cn1)NC(=O)[C@H](Cc1ccccc1)NC(=O)Nc1cc(C(F)(F)F)cc(C(F)(F)F)c1`, the GI50 is 16.1 µM in assay [1]; 17.1 µM in assay [2]; 4.97 µM and 14.9 µM in [3]; 2.5 µM and 7.46 µM in [4]; 15.3 µM in assay [5]; 17.2 µM in assay [7]. Moreover, the GI50 is 15.6 µM in assay [8] and 16.1 µM in [9]. The TGI is 31.6 µM in [1]; 31.7 µM in assay [2]; 29.8 µM in assay [3]; 9.27 µM and 20.6 µM in assay [4]; 29.4 µM in [5]; 33 µM in assay [7]. Further, the TGI turned out to be 30 µM in assay [8] and 30.1 µM in [9].

For `C=C1C(=O)O[C@H]2C[C@@H]1C(=O)CC(C)CCCC(C)=CCC[C@@]2(C)O` (stereo partly drawn), the TGI in [1], in assay [3], in assay [4], in assay [5], in [6] and in [7] was above 25 µM in each case. Besides, the TGI in assay [9] and in assay [10] was above 25 µM each time.

Consider `c1ccc(OC2=NC3=S(S2)SC(Oc2ccccc2)=N3)cc1`, for which the TGI in assay [1] amounted to 47.6 µM; in [2] it was 34.3 µM; in assay [3], 40.2 µM; in [4] it was 43.4 µM; in assay [6] it was 24.2 µM; in assay [7], 54.6 µM. Further, the figures for the TGI in assay [8], in assay [9] and in assay [10] were 59.5 µM, 34.7 µM and 37.6 µM, respectively.

`CCn1c2ccccc2c2cc(C(=O)c3ccc(C)c4ccccc34)ccc21`: the GI50 in assay [1] is 0.421 µM; in assay [2], 1.61 µM; in assay [3] it was 0.263 µM; in assay [4], 0.323 µM; in assay [5], 0.161 µM; in assay [6], 0.35 µM. Also, the values for the GI50 in assay [7], in [9] and in assay [10] were 0.255 µM, 39.3 µM and 0.296 µM, respectively. In addition, the TGI in assay [1] is above 100 µM; in assay [2], above 100 µM; in [3] it was 0.729 µM; in [4] it was 1.62 µM; in assay [5], 0.378 µM; in [6], 2.71 µM. The TGI in assay [7] is 0.802 µM; in [9], above 100 µM; in [10], 3.52 µM.

Source of the values: PubChem BioAssay (NCI).
